Test results published in patent US20110021475A1, “Compositions And Methods for Treatment Of Fibrosis” (priority 2003, published 2011).

How the values were obtained:
human hepatocytes = conditions: compared to control cells; cited from earlier work
[1] = system: rats treated with carbon tetrachloride (CCl4); test: Acute liver fibrosis in vivo model (single dose CCl4); design: species or system rat
Experimental: Male CRL:CD(SD)IGS® rats (Charles River Laboratories) weighing 250-280 g were randomized into three groups of 5-6 rats per group. On day 1, rats in Group 1 (Control) were given a single intraperitoneal (ip) injection of corn oil (5 ml/kg). Rats in Groups 2 and 3 were given a single ip injection of 30% carbon tetrachloride (CCl4) in corn oil (5 ml/kg). Beginning four hours after the initial ip injections and continuing for four days, rats in Group 1 (Control) and Group 2 (CCl4) were given vehicle (20% Encapsin; Cerestar Inc., IN) by oral gavage twice daily. Beginning four hours after the initial ip injections and continuing for four days, rats in Group 3 (CCl4+GW4064) were given 30 mg/kg GW4064 in vehicle by oral gavage, twice daily for four days.
Four hours after the final oral dose on day four, rats were sacrificed under deep anesthesia and blood and livers were collected. A portion of liver from each rat was fixed in 10% phosphate-buffered formalin (pH 7.4). The remaining livers were snap frozen in liquid nitrogen and stored at −80° C. prior to RNA extraction.
Histopathology: The tissues were processed by standard histological techniques. Liver sections were stained with hematoxylin and eosin (H&E) using standard protocols and examined by light microscopy for necrosis and other structural changes. Immunohistochemistry was used to visualize α-smooth muscle actin (DAKO Corporation, CA) according to the manufacturer's instructions. Sirius Red (Sigma, St Louis, Mo.) was used to visualize collagen according to the manufacturer's instructions.
(§1) Reverse Transcription Quantitative Polymerase Chain Reaction (RTQ-PCR). Total RNA was extracted from rat liver using TRIzol reagent (Invitrogen) according to the manufacturer's directions. The RNA was treated with DNase I (Ambion, Austin, Tex.) at 37° C. for 30 min, followed by inactivation at 75° C. for 5 min. RNA was then quantitated using the RiboGreen RNA quantitation kit (Molecular Probes, Eugene, Oreg.). RNA expression was measured by RTQ-PCR using an ABI PRISM 7700 or 7900 Sequence Detection System (PE Applied Biosystems, Foster City, Calif.).
(§2) Statistical Analysis: All data were analyzed by one-way analysis of variance (ANOVA) followed by Duncan's multiple range test. The 0.05 level of probability was used as the criteria of significance.

[2] = system: rats treated with carbon tetrachloride (CCl4); test: Chronic liver fibrosis in vivo model (twice weekly CCl4 up to eight weeks); design: species or system rat
Experimental: Male CRL:CD(SD)IGS® rats (Charles River Laboratories) weighing 250-350 were randomized into 3 groups. All rats received twice weekly intraperitoneal (ip) injections of 20% carbon tetrachloride (CCl4) in corn oil (5 ml/kg) for the duration of the study. Two weeks after the initiation of the CCl4 injections, rats in Group 1 (CCL4+Vehicle) began receiving vehicle (6% Encapsin; Cerestar Inc., IN) twice daily, rats in Group 2 (CCL4+GW4064) began receiving 30 mg/kg GW4064 in vehicle twice daily, and rats in Group 3 (CCL4+Silymarin) began receiving silymarin in vehicle twice daily. (Silymarin reduces TGFb1 and collagen deposition in fibrotic rat liver (Jia et al., J Hepatol 2001 September; 35(3):392-8).
Multiple rats from each group were sacrificed after each of four, six and eight weeks on study. Rats were also sacrificed following the two weeks of CCL4 exposure, prior to initiation of drug treatment, as well as five untreated Naive rats. An additional five untreated Naïve rats were also sacrificed at the eight week timepoint. Plasma, serum, kidneys and livers were collected for analysis. Histopathological, mRNA and serum markers of liver damage and liver fibrosis were examined.
Histopathology: The tissues were processed by standard histological techniques. Liver sections were stained with hematoxylin and eosin (H&E) using standard protocols and examined by light microscopy for necrosis and other structural changes. Immunohistochemistry was used to visualize α-smooth muscle actin (Sigma, St Louis, Mo.) according to the manufacturer's instructions. Sirius Red (Sigma, St Louis, Mo.) was used to visualize collagen according to the manufacturer's instructions. Liver sections were stained with Masson's trichrome (Sigma, St Louis, Mo.) according to the manufacturer's instructions.
as §1, with “from sections of” for “from”, “75°C.” for “75° C.”
Serum Analysis: Serum TIMP1 (R&D Systems, Minneapolis, Minn.) levels were measured according to the manufacturer's directions.
as §2

[3] = system: bile duct ligated (BDL) rats; test: Bile duct ligated (BDL) rats: serum chemistry, liver histology and liver fibrosis marker mRNA; assay type: in vivo, rat; conditions: for level of Collagen I mRNA in liver / level of alpha SMA mRNA in liver: compared to sham operated rats (p<0.05)
Experimental: A study of the effects of an FXR agonist (GW4064) on the livers of bile duct ligated (BDL) rats was carried out. This study was initially devised to examine the effects of FXR agonist on non-fibrotic liver damage due to cholestosis. The present researchers additionally went on to examine samples from these experiments for markers of liver fibrosis.
Male Sprague-Dawley rats (approximately 300 grams) were obtained from Charles River Laboratories Inc (Raleigh, N.C.) and were maintained on a 12 hour light/12 hour dark light cycle. Animals were anesthetized by the administration of 2-3% isoflurane. Laparotomy was performed under sterile technique and the liver and duodenum gently displaced to reveal the common bile duct. The bile duct was separated from the surrounding tissue and two ligatures of 4-0 Ethilon were placed around it. The bile duct was clamped between the two ligatures with an aneurysm clamp and the ligatures drawn tight. An additional ligature was placed proximal to the first (near the liver). The clamp was removed and the bile duct severed between the ligatures. The muscle wall was closed with 4-0 Vicryl and the skin closed with staples. Sham controls underwent laparotomy, but the bile ducts were not ligated or transected. Animals were allowed food and water ad libitum throughout the study period. Animals were anesthetized with 2-3% isoflurane and sacrificed by cardiac puncture.
Twenty-four hours after surgery, groups of rats (n=6-8) received intraperitoneal injections once daily for four days, of either (a) 5 ml/kg corn oil (vehicle); (b) 30 mg/kg GW4064 in corn oil; or (c) 15 mg/kg TUDCA in corn oil (taurine-conjugated ursodeoxycholic acid, used clinically to treat cholestosis). Sham operated animals received intraperitoneal injections of 5 ml/kg corn oil vehicle 24 hours after sham operation. Four hours after the last dose on day four, blood and livers were collected.
Serum activities of alanine aminotransferase (ALT), asparate aminotransferase (AST), sorbital dehydrogenase (SDH), y-glutamyl transferase (GGT), lactate dehydrogenase (LDH), alkaline phosphatase (ALP) and total bilirubin were determined. Serum bile acids (BILEA) were determined using a commercially available assay (Sigma Chemical Co., St Louis, Mo.).
In humans, liver fibrosis secondary to cholestatic disease is known to occur clinically. Experimentally, bile duct ligation in rats as a model of cholestosis is also known to cause liver fibrosis. In view of this, the present researchers additionally examined the BDL rat liver tissue for markers of liver fibrosis. Levels of Smooth Muscle Actin (SMA) mRNA, Collagen I mRNA, and TGFbeta1 mRNA were measured; results are graphed in FIG. 1a-1c where white bars=sham operated rats; black bars=vehicle treated BDL rats; striped bars=GW4064 treated BDL rats; and dotted bars=TUDCA treated BDL rats.

[4] = system: rat hepatic stellate cells; test: In vitro stellate cell activation (RTQ-PCR of SMA, collagen, fibronectin mRNA); assay type: cell-based
Experimental: Rat hepatic stellate cells were isolated from male CRL:CD(SD)IGS® rats (Charles River Laboratories) as described previously. Cells were plated into six well plates at a density of 1×10^6 cells/well in DMEM-F12 media with 20% FCS. Twenty-four hours after plating, the media was replaced with media containing 0.1% DMSO (vehicle control) or 10 uM GW4064 with 0.1% DMSO. Following 2, 4, 6 or 8 days of treatment, total RNA was extracted from the cells using TRIzol reagent (Invitrogen) according to the manufacturer's directions. The RNA was treated with DNase I (Ambion, Austin, Tex.) at 37° C. for 30 min, followed by inactivation at 75° C. for 5 min. RNA was then quantitated using the RiboGreen RNA quantitation kit (Molecular Probes, Eugene, Oreg.). RNA expression was measured by RTQ-PCR using an ABI PRISM 7700 or 7900 Sequence Detection System (PE Applied Biosystems, Foster City, Calif.). For analysis, gene expression was normalized to 18S RNA. Follow-up studies were conducted using the same study design, except for a lower dose of GW4064 (3 uM). In the vehicle control group, SMA, collagen and fibronectin peaked at six days of culture; collagen and fibronectin expression began to decline following eight days in culture (FIGS. 4A-4C, white bars). […] (FIGS. 4a-4c, shaded bars; asterisk indicates p<0.05 compared to the vehicle treatment at the indicated timepoint).

[5] = 30 mg/kg oral gavage twice daily for four days after single CCl4, compared to CCl4+V animals
[6] = 30 mg/kg oral twice daily four days, compared to control
[7] = 30 mg/kg oral twice daily four days, compared to group 2 (CCl4+vehicle), p<0.05
[8] = twice daily from week 2, compared to CCl4+Vehicle rats
[9] = twice daily from week 2, compared to CCl4+Vehicle rats, 8 week timepoint
[10] = 30 mg/kg GW4064 or 15 mg/kg TUDCA ip once daily for four days, compared to vehicle-treated BDL rats
[11] = day four, compared to vehicle-treated BDL rats
[12] = ip once daily for four days, compared to vehicle treated BDL rats
[13] = 3 uM, eight days, compared to vehicle
[14] = 3 uM, six days, compared to vehicle
[15] = 10 uM, eighth day, compared to control group, normalized to 18S
[16] = 10 uM, six days, compared to vehicle control group

Structure (SMILES): CC(C)c1onc(-c2c(Cl)cccc2Cl)c1COc1ccc(/C=C/c2cccc(C(=O)O)c2)c(Cl)c1 [GW4064]
- expression of Fibroblast Growth Factor 19 (FGF19) (human hepatocytes): increased
- liver SMA (immunohistochemistry) [1, 5]: reduced SMA
- liver collagen deposition (Sirius Red) [1, 5]: reduced collagen deposition
- liver Collagen I mRNA [1, 6]: not statistically different from control
- liver SMA mRNA [1, 6]: not statistically different from control
- liver TGFb1 mRNA [1, 6]: not statistically different from control
- liver Collagen I mRNA [1, 7]: significantly decreased
- liver SMA mRNA [1, 7]: significantly decreased
- liver collagen deposition (Sirius Red) ([2]; twice daily from week 2 (GW4064 30 mg/kg), six and eight week timepoints, compared to CCl4+V animals): reduced collagen deposition
- liver TGFb1 mRNA [2, 8]: unchanged
- reduction in liver SMA mRNA [2, 8]: not statistically significant
- liver Collagen I mRNA [2, 9]: significant reductions
- liver TIMP1 mRNA [2, 9]: significant reductions
- serum TIMP1 ([2]; twice daily from week 2, compared to CCl4+Vehicle treated rats at 8 weeks, p<0.05): significant reductions
- serum level of ALT [3, 10]: reductions
- serum level of LDH [3, 10]: reductions
- level of TGFb1 mRNA in liver ([3]; day four, compared to BDL rats receiving vehicle or TUDCA): significantly reduced
- level of Collagen I mRNA in liver ([3]; day four): significantly different
- level of alpha SMA mRNA in liver ([3]; day four): significantly different
- number of mitotic nuclei (liver histology) ([3]; day four, compared to vehicle treatment): reduced
- bile duct proliferation (liver histology) [3, 11]: reduced bile duct proliferation
- fatty cell degeneration (liver histology) [3, 11]: decreased fatty cell degeneration
- liver necrotic lesions (histology) [3, 11]: qualitatively fewer and smaller necrotic lesions
- serum bile acids [3, 12]: did not significantly reduce
- serum level of ALP [3, 12]: did not significantly reduce
- serum level of GGT [3, 12]: did not significantly reduce
- serum level of SDH [3, 12]: did not significantly reduce
- serum total bilirubin [3, 12]: did not significantly reduce
- serum level of AST ([3]; ip once daily for four days, compared to vehicle-treated BDL rats): reductions
- collagen mRNA [4, 13]: not significantly different from vehicle
- decrease of SMA mRNA [4, 13]: 40%
- fibronectin mRNA [4, 13]: not significantly different from vehicle
- decrease of SMA mRNA [4, 14]: 55%
- decrease of collagen mRNA [4, 14]: 31%
- decrease of fibronectin mRNA [4, 14]: 28%
- decrease of SMA mRNA [4, 15]: 84%
- decrease of collagen mRNA [4, 15]: 51%
- decrease of fibronectin mRNA [4, 15]: 79%
- SMA mRNA [4, 16]: decreased
- fibronectin mRNA [4, 16]: decreased

Structure (SMILES): C[C@H](CCC(=O)NCCS(=O)(=O)O)[C@H]1CC[C@H]2[C@@H]3[C@@H](O)C[C@@H]4C[C@H](O)CC[C@]4(C)[C@H]3CC[C@]12C [TUDCA, taurine-conjugated ursodeoxycholic acid, reference compound]
- serum level of LDH [3, 10]: significant decrease
- level of Collagen I mRNA in liver ([3]; day four): significantly different
- level of alpha SMA mRNA in liver ([3]; day four): significantly different
- liver sections, histology overall (necrosis, bile duct proliferation) ([3]; day four, compared to vehicle treated BDL rats): did not appear to differ substantially from vehicle treated BDL rats
